# From ChEMBL document CHEMBL3407332, “An efficient synthesis of new caffeine-based chalcones, pyrazolines and pyrazolo[3,4-b][1,4]diazepines as potential antimalarial, antitrypanosomal and antileishmanial agents” (Eur J Med Chem, 2015)
# Assays:
# Plasmodium falciparum [1] = experiment: Antimalarial activity against asynchronic culture of Plasmodium falciparum NF54 assessed as parasite growth inhibition at 20 ug/mL after 48 hrs by ethidium bromide staining-based spectrofluorometric analysis relative to control; type: functional; details: NF54, 48 h, read-out: GI
# [2] = Cytotoxicity against human U937 cells assessed as cell viability after 72 hrs by MTT assay; type: cell-based, U-937; details: read-out: LC50
# Trypanosoma cruzi [3] = experiment: Antitrypanosomal activity against amastigote stage of Trypanosoma cruzi Tulahuen infected in human U937 cells assessed as parasite growth inhibition at 20 ug/mL after 72 hrs by beta-galactosidase reporter gene assay relative to control; type: functional; details: U-937, 72 h, read-out: GI
# Leishmania panamensis [4] = experiment: Antileishmanial activity against amastigote stage of Leishmania panamensis MHOM/CO/87/UA140-EpiR-GFP infected in human U937 cells assessed as parasite growth inhibition at 20 ug/mL after 72 hrs by flow cytometric analysis relative to control; type: functional; details: MHOM/CO/87/UA140, U-937, 72 h, read-out: GI
# Leishmania panamensis [5] = experiment: Antileishmanial activity against amastigote stage of Leishmania panamensis MHOM/CO/87/UA140-EpiR-GFP infected in human U937 cells assessed as parasite growth inhibition after 72 hrs by flow cytometric analysis; type: functional, organism-based; details: MHOM/CO/87/UA140, U-937, 72 h
# Trypanosoma cruzi [6] = experiment: Antitrypanosomal activity against amastigote stage of Trypanosoma cruzi Tulahuen infected in human U937 cells assessed as parasite growth inhibition at 1 ug/mL after 72 hrs by beta-galactosidase reporter gene assay relative to control; type: functional; details: U-937, 72 h, read-out: GI
# [7] = Hemolytic activity in human RBC after 48 hrs by spectrophotometric analysis; type: ADME, cell-based, Erythrocyte; details: human red blood cells (RBC), read-out: LC50
# Plasmodium falciparum [8] = experiment: Antimalarial activity against asynchronic culture of Plasmodium falciparum NF54 assessed as parasite growth inhibition after 48 hrs by ethidium bromide staining-based spectrofluorometric analysis; type: functional, organism-based; details: NF54, 48 h
# Leishmania panamensis [9] = experiment: Antileishmanial activity against amastigote stage of Leishmania panamensis MHOM/CO/87/UA140-EpiR-GFP infected in human U937 cells assessed as parasite growth inhibition at 5 ug/mL after 72 hrs by flow cytometric analysis relative to control; type: functional; details: MHOM/CO/87/UA140, U-937, 72 h, read-out: GI
# Trypanosoma cruzi [10] = experiment: Antitrypanosomal activity against amastigote stage of Trypanosoma cruzi Tulahuen infected in human U937 cells assessed as parasite growth inhibition after 72 hrs by beta-galactosidase reporter gene assay; type: functional, organism-based; details: U-937, 72 h
SMILES,inhibition of growth at 20 µg/mL (Plasmodium falciparum [1]) [%],CC50 at 72 h [2] [µg/mL],inhibition of growth at 20 µg/mL (Trypanosoma cruzi [3]) [%],inhibition of growth at 20 µg/mL (Leishmania panamensis [4]) [%],EC50 (Leishmania panamensis [5]) [µg/mL],inhibition of growth at 1 µg/mL (Trypanosoma cruzi [6]) [%],HC50 at 48 h [7] [µg/mL],IC50 (Plasmodium falciparum [8]) [µg/mL],inhibition of growth at 5 µg/mL (Leishmania panamensis [9]) [%],EC50 (Trypanosoma cruzi [10]) [µg/mL]
COc1cc(/C=C/C(=O)c2ccccc2)ccc1Oc1nc2c(c(=O)n(C)c(=O)n2C)n1C,27.5,131,0,40.4,–,–,–,–,–,–
COc1cc(/C=C/C(=O)c2ccc(Cl)cc2)ccc1Oc1nc2c(c(=O)n(C)c(=O)n2C)n1C,18.4,102,29.5,88.3,12.9,–,–,–,–,–
COc1cc(/C=C/C(=O)c2ccc(Br)cc2)ccc1Oc1nc2c(c(=O)n(C)c(=O)n2C)n1C,34.3,96.5,0,50.8,–,–,–,–,–,–
COc1cc(/C=C/C(=O)c2ccc(C)cc2)ccc1Oc1nc2c(c(=O)n(C)c(=O)n2C)n1C,54.3,27.5,–,–,2.6,0,> 200,21.4,21.8,–
COc1ccc(C(=O)/C=C/c2ccc(Oc3nc4c(c(=O)n(C)c(=O)n4C)n3C)c(OC)c2)cc1,0,> 200,27.5,82.6,14.2,–,–,–,–,–
COc1cc(/C=C/C(=O)c2cc(OC)c(OC)c(OC)c2)ccc1Oc1nc2c(c(=O)n(C)c(=O)n2C)n1C,6.4,3.2,–,–,2.6,9.7,–,–,48.8,5.9
COc1cc(C2CC(c3ccccc3)=NN2)ccc1Oc1nc2c(c(=O)n(C)c(=O)n2C)n1C (configuration not stated),85.2,19.8,–,–,–,0,> 200,13.7,0,–
COc1cc(C2CC(c3ccc(Cl)cc3)=NN2)ccc1Oc1nc2c(c(=O)n(C)c(=O)n2C)n1C (configuration not stated),23.9,34.6,36.4,7.7,–,–,–,–,–,–
COc1cc(C2CC(c3ccc(Br)cc3)=NN2)ccc1Oc1nc2c(c(=O)n(C)c(=O)n2C)n1C (configuration not stated),56.8,> 200,0,60,19.5,–,> 200,20.8,–,–
COc1cc(C2CC(c3ccc(C)cc3)=NN2)ccc1Oc1nc2c(c(=O)n(C)c(=O)n2C)n1C (configuration not stated),46.1,53.2,61.9,0,–,–,–,–,–,19.4
COc1ccc(C2=NNC(c3ccc(Oc4nc5c(c(=O)n(C)c(=O)n5C)n4C)c(OC)c3)C2)cc1 (configuration not stated),13.1,> 200,25.9,0,–,–,–,–,–,–
COc1cc(C2CC(c3cc(OC)c(OC)c(OC)c3)=NN2)ccc1Oc1nc2c(c(=O)n(C)c(=O)n2C)n1C (configuration not stated),30.7,> 200,0,73,15.8,–,–,–,–,–
COc1cc(C2CC(c3ccccc3)=NN2C(C)=O)ccc1Oc1nc2c(c(=O)n(C)c(=O)n2C)n1C (configuration not stated),62.5,14.8,–,–,–,0,> 200,18.4,35.2,–
COc1cc(C2CC(c3ccc(Cl)cc3)=NN2C(C)=O)ccc1Oc1nc2c(c(=O)n(C)c(=O)n2C)n1C (configuration not stated),22.1,> 200,9.8,39.1,–,–,–,–,–,–
COc1cc(C2CC(c3ccc(Br)cc3)=NN2C(C)=O)ccc1Oc1nc2c(c(=O)n(C)c(=O)n2C)n1C (configuration not stated),44.1,110,24.3,82.8,14.3,–,–,–,–,–
COc1cc(C2CC(c3ccc(C)cc3)=NN2C(C)=O)ccc1Oc1nc2c(c(=O)n(C)c(=O)n2C)n1C (configuration not stated),35.6,> 200,30.6,63.7,18.1,–,–,–,–,–
